Results taken from US20230405143A1, “TYROSINE-BASED ANTIBODY CONJUGATES” (Synaffix B.V., priority 2020, published 2023).

Experiment: stability of linker-payload under acidic sample work-up and analysis (MS / RP-HPLC)
Assay type: physicochemical
Conditions: note to FIG. 26
Experimental: Note: *BCN-HS-PEG2-va-PABC-PBD is not stable under the acidic conditions used in sample work-up and analysis. Therefore, some peak broadening is observed, so conversion was determined by the amount of starting material left.
Prior to RP-HPLC analysis, IgG (10 μL, 1 mg/mL in PBS pH 7.4) was added to 12.5 mM DTT, 100 mM TrisHCl pH 8.0 (40 μL) and incubated for 15 minutes at 37° C. The reaction was quenched by adding 49% acetonitrile, 49% water, 2% formic acid (50 μL). RP-HPLC analysis was performed on an Agilent 1100 series (Hewlett Packard). The sample (10 μL) was injected with 0.5 mL/min onto Bioresolve RP mAb 2.1*150 mm 2.7 μm (Waters) with a column temperature of 70° C. A linear gradient was applied in 16.8 minutes from 30 to 54% acetonitrile in 0.1% TFA and water.
Prior to mass spectral analysis, IgG was treated with IdeS, which allows analysis of the Fc/2 fragment. For analysis of the Fc/2 fragment, a solution of 20 μg (modified) IgG was incubated for 1 hour at 37° C. with IdeS/Fabricator™ (1.25 U/μL) in PBS pH 6.6 in a total volume of 10 μL. Samples were diluted to 80 μL followed by analysis electrospray ionization time-of-flight (ESI-TOF) on a JEOL AccuTOF. Deconvoluted spectra were obtained using Magtran software.

Substance: BCN-HS-PEG2-va-PABC-PBD
- stability under the acidic conditions used in sample work-up and analysis: not stable
